The test system of one test is corneal neovessels. Description: Experimentally induced corneal neovascularization (N-heptanol scrub): PDT closure of corneal neovessels, fluorescein angiography out to 28 days. Format: in vivo, Sprague Dawley rats. Particulars: corneal neovessels induced by n-heptanol scrub, rats; light dose 20 J/cm^2 at optimal excitation wavelength; optimal drug dose and time interval per compound; grade by corneal fluorescein angiography (neovessel-free area). The procedure:
The chlorin e6molecules were evaluated in a series of preclinical ocular neovessel models, corneal neovascularization, normal choriocapillaris vessels, and choroidal neovascularization. […] The chemical scrub was used to remove the corneal epithelium and stem cells, allowing the neovessels to grow across the entire cornea. PDT was performed at approximately 3 weeks after the chemical scrub when the neovessels formed a uniform network across the cornea. The PDT treatment was applied to the corneal surface with a laser wavelength that was optimized for the given absorption spectrum. The laser energy was coupled through a slit lamp biomicroscope with a slit lamp adapter. A 3.0 mm spot size was used (Area=7.07 mm^2). The light dose delivered was varied from 5-25 J/cm^2. The efficacy of neovessel closure was evaluated by measuring the area of treated cornea that remained neovessel-free out to 28 days following PDT. Accurate area measurements were taken using fluorescein angiography and measuring the area of neovessel-free cornea.

A further test relates to choriocapillaris. As to the kind of experiment: Normal choriocapillaris rabbit model: PDT vessel closure out to 28 days, fluorescein angiography. In kind it is in vivo. Particulars: pigmented rabbit, intravenous, light dose 20 J/cm^2, optimal drug dose and time interval per compound, grade by fluorescein angiography. The procedure: The chlorin e6molecules were evaluated in a series of preclinical ocular neovessel models, corneal neovascularization, normal choriocapillaris vessels, and choroidal neovascularization.
Selected chlorin e6 molecules were also evaluated in a normal choriocapillaris model in the pigmented rabbit. […] The selected photosensitizers were administered intravenously at varying drug doses, the light dose was set constant at 20 J/cm^2, and the time interval was varied from 5-30 minutes between drug and light administration. Two PDT treatment areas were placed on the fundus of each eye in each rabbit. Fluorescein angiography was used to evaluate vessel closure following PDT out to 28 days.

In test [1] the test system is choroidal neovascularization lesions. As to the kind of experiment: Laser-induced choroidal neovascularization (CNV) model: PDT closure of CNV lesions, fluorescein angiography and histopathology. Format: in vivo, rats. The protocol:
Two of the chlorin e6molecules, (39) and (106), were evaluated in a laser-induced choroidal neovascularization (CNV) model in rats. Laser photocoagulation was used to stimulate choroidal neovessel growth on the fundus of the rat (E. T. Dobi, C. Puliafito, M. A. Destro, “A new model of experimental choroidal neovascularization in the rat”, Arch. Ophthalmol. 1989; 107: 264-269). The PDT treatments were performed approximately 4 weeks after the laser photocoagulation, which was when the choroidal neovascularization lesions were fully developed. The lesions were PDT treated using a 1.2 mm spot which covered the entire CNV lesion. Fluorescein angiography and histopathology were used to evaluate the CNV closure.

`C=Cc1c(C)c2cc3nc(c(CC(=O)OC)c4[nH]c(cc5nc(cc1[nH]2)C(C)=C5CC)c(C)c4C(=O)NCCCO)C(CCC(=O)OC)C3C` (centres unmarked) [Compound 30, 3-[[(3-hydroxypropyl)amino]carbonyl]-13-ethenyl-18-ethyl-7,8-dihydro-5-(2-methoxy-2-oxoethyl)-2,8,12,17-tetramethyl-21H, 23H-Porphine-7-propionic acid, methyl ester]: the “Extent of neovessel closure at 28 days after treatment” value (shortened to “Extent of neovessel closure”) in the test on corneal neovessels is listed as 2 (2 = 1.1-2.0 mm^2). Also, in the test with choriocapillaris, the “Closure at 28 Days” value was 3 (3 = 51-75%).

`C=Cc1c(C)c2cc3nc(c(CC(=O)OC)c4[nH]c(cc5nc(cc1[nH]2)C(C)=C5CC)c(C)c4C(=O)NCCCOC(C)=O)C(CCC(=O)OC)C3C` (centres unmarked) [Compound 34, 3-[[(3-acetoxypropyl)amino]carbonyl]-13-ethenyl-18-ethyl-7,8-dihydro-5-(2-methoxy-2-oxoethyl)-2,8,12,17-tetramethyl-21H, 23H-Porphine-7-propionic acid, methyl ester]: the “Extent of neovessel closure” value in the test on corneal neovessels is listed as 1 (1 = 0.21-1.0 mm^2). Moreover, in the test on choriocapillaris, the “Closure at 28 Days” value is reported as 3 (3 = 51-75%).

In the case of `C=Cc1c(C)c2cc3nc(c(CC(=O)OC)c4[nH]c(cc5nc(cc1[nH]2)C(C)=C5CC)c(C)c4C(=O)NCCOCCO)C(CCC(=O)OC)C3C` (centres unmarked) [Compound 39, 3-[[(5-hydroxy-3-oxa-pentyl)amino]carbonyl]-13-ethenyl-18-ethyl-7,8-dihydro-5-(2-methoxy-2-oxoethyl)-2,8,12,17-tetramethyl-21H, 23H-Porphine-7-propionic acid, methyl ester], the “CNV closure (fluorescein angiography)” value in test [1] (0.8 & 1.6 μmoles/kg, 10-20 minutes time interval post injection, 7 days after PDT) was “closed the CNV lesion”. Also, the “Extent of neovessel closure” value with corneal neovessels is on record as 1 (1 = 0.21-1.0 mm^2). The “Closure at 28 Days” value in the test on choriocapillaris is given as 4 (4 > 75%).

As for `C=Cc1c(C)c2cc3nc(c(CCO)c4[nH]c(cc5nc(cc1[nH]2)C(C)=C5CC)c(C)c4C(=O)NCCOCCO)C(CCCO)C3C` (centres unmarked) [Compound 43, 7-(3-hydroxypropyl)-3-[[(5-hydroxy-3-oxa-pentyl)amino]carbonyl]-13-ethenyl-18-ethyl-7,8-dihydro-5-(2-hydroxyethyl)-2,8,12,17-tetramethyl-21H, 23H-Porphine], the “Extent of neovessel closure” value in the test on corneal neovessels is 1 (1 = 0.21-1.0 mm^2).

Consider `C=Cc1c(C)c2cc3nc(c(CC(=O)OC)c4[nH]c(cc5nc(cc1[nH]2)C(C)=C5CC)c(C)c4C(=O)NCCOCCOC(C)=O)C(CCC(=O)OC)C3C` (centres unmarked) [Compound 45, 3-[[(5-acetoxy-3-oxa-pentyl)amino]carbonyl]-13-ethenyl-18-ethyl-7,8-dihydro-5-(2-methoxy-2-oxoethyl)-2,8,12,17-tetramethyl-21H, 23H-Porphine-7-propionic acid, methyl ester], for which, in the test on corneal neovessels, the “Extent of neovessel closure” value is 1 (1 = 0.21-1.0 mm^2). The “Closure at 28 Days” value in the test with choriocapillaris is given as 3 (3 = 51-75%).

For `CCC1=C(C)c2cc3[nH]c(cc4nc(c(CC(=O)OC)c5[nH]c(cc1n2)c(C)c5C(=O)NCCCO)C(CCC(=O)OC)C4C)c(C)c3C(C)=O` (centres unmarked) [Compound 101, 3-[[(3-hydroxypropyl]amino]carbonyl]-13-acetyl-18-ethyl-7,8-dihydro-5-(2-methoxy-2-oxoethyl)-2,8,12,17-tetramethyl-21H, 23H-Porphine-7-propionic acid, methyl ester], the “Extent of neovessel closure” value in the test on corneal neovessels is 0 (0 = 0-0.2 mm^2).

For the compound `CCC1=C(C)c2cc3[nH]c(cc4nc(c(CC(=O)OC)c5[nH]c(cc1n2)c(C)c5C(=O)NCCOCCO)C(CCC(=O)OC)C4C)c(C)c3C(C)=O` (centres unmarked) [Compound 106, 3-[[(5-hydroxy-3-oxa-pentyl)amino]carbonyl]-13-acetyl-18-ethyl-7,8-dihydro-5-(2-methoxy-2-oxoethyl)-2,8,12,17-tetramethyl-21H, 23H-Porphine-7-propionic acid, methyl ester], the “CNV closure (fluorescein angiography)” value in test [1] (0.75 μmoles/kg, 20 minutes time interval post injection, 7 days post PDT) is “demonstrated CNV closure”. In addition, the “Extent of neovessel closure” value in the test on corneal neovessels was 1 (1 = 0.21-1.0 mm^2). Also, in the test on choriocapillaris, the “Closure at 28 Days” value is given as 4 (4 > 75%).
